Columns and labels:
L1210 = assay: Cytotoxicity against mouse L1210 cells; assay type: cell-based
Human alphaherpesvirus 1 [1] = assay: Antiviral activity against thymidine kinase-deficient ACV-resistant HSV-1 KOS infected in HEL cells assessed as inhibition of virus-induced cytopathicity; assay type: functional, organism-based; settings: Human alphaherpesvirus 1, KOS
Felid alphaherpesvirus 1 = assay: Antiviral activity against Feline herpesvirus in cat CrFK cells assessed as plaque formation; assay type: functional, organism-based; settings: Felid alphaherpesvirus 1, CRFK
[2] = system: Human immunodeficiency virus 2; assay: Antiviral activity against HIV-2 ROD infected in human CEM cells assessed as HIV-induced host giant cell formation after 4 days by microscopic analysis; assay type: functional, organism-based; settings: Human immunodeficiency virus 2, ISOLATE ROD, CCRF-CEM, 96 h
Human alphaherpesvirus 1 [3] = assay: Antiviral activity against HSV-1 KOS infected in HEL cells assessed as inhibition of virus-induced cytopathicity; assay type: functional, organism-based; settings: Human alphaherpesvirus 1, KOS
Human alphaherpesvirus 2 = assay: Antiviral activity against HSV-2 G infected in HEL cells assessed as inhibition of virus-induced cytopathicity; assay type: functional, organism-based; settings: Human alphaherpesvirus 2, strain G
[4] = Cytotoxicity against cat CRFK cells; assay type: cell-based, Felis catus
CCRF-CEM = assay: Cytotoxicity against human CEM cells; assay type: cell-based
Feline coronavirus = assay: Antiviral activity against Feline coronavirus in cat CrFK cells assessed as plaque formation; assay type: functional, organism-based; settings: Alphacoronavirus 1, CRFK
Human alphaherpesvirus 3 [5] = assay: Antiviral activity against Varicellla-zoster virus 07-1 infected in HEL cells assessed as inhibition of virus-induced cytopathicity; assay type: functional, organism-based; settings: Human alphaherpesvirus 3, 07-1, HEL
[6] = system: Vesicular stomatitis virus; assay: Antiviral activity against Vesicular somatitis virus infected in HEL cells assessed as inhibition of virus-induced cytopathicity; assay type: functional, organism-based
Human betaherpesvirus 5 = assay: Antiviral activity against Cytomegalovirus AD-169 infected in HEL cells assessed as inhibition of virus-induced cytopathicity; assay type: functional, organism-based; settings: Human betaherpesvirus 5, AD169, HEL
Cytomegalovirus = assay: Antiviral activity against Cytomegalovirus Davis infected in HEL cells assessed as inhibition of virus-induced cytopathicity; assay type: functional, organism-based; settings: Human betaherpesvirus 5, Davis
Human alphaherpesvirus 3 [7] = assay: Antiviral activity against Varicellla-zoster virus Oka infected in HEL cells assessed as inhibition of virus-induced cytopathicity; assay type: functional, cell-based; settings: Human alphaherpesvirus 3, strain Oka vaccine
[8] = system: Human immunodeficiency virus 1; assay: Antiviral activity against HIV-1 3B infected in human CEM cells assessed as HIV-induced host giant cell formation after 4 days by microscopic analysis; assay type: functional, organism-based; settings: Human immunodeficiency virus 1, 3B, CCRF-CEM, 96 h
Vaccinia virus = assay: Antiviral activity against Vaccinia virus Lederle infected in HEL cells assessed as inhibition of virus-induced cytopathicity; assay type: functional, organism-based; settings: Orthopoxvirus vaccinia
[9] = Cytotoxicity against human HEL cells; assay type: cell-based

| SMILES | IC50 (L1210) | EC50 (Human alphaherpesvirus 1 [1]) | EC50 (Felid alphaherpesvirus 1) | EC50 [2] | EC50 (Human alphaherpesvirus 1 [3]) | EC50 (Human alphaherpesvirus 2) | CC50 [4] | IC50 (CCRF-CEM) | EC50 (Feline coronavirus) | EC50 (Human alphaherpesvirus 3 [5]) | EC50 [6] | EC50 (Human betaherpesvirus 5) | EC50 (Cytomegalovirus) | EC50 (Human alphaherpesvirus 3 [7]) | EC50 [8] | EC50 (Vaccinia virus) | MCC [9] |
| --- | --- | --- | --- | --- | --- | --- | --- | --- | --- | --- | --- | --- | --- | --- | --- | --- | --- |
| C[C@H](NP(=O)(Oc1ccccc1)O[C@H]1O[C@H](CO)[C@@H](O)C1(F)F)C(=O)OCC(C)(C)C (mixture of isomers) | > 30 µM | > 20 µM | > 20 µM | > 250 µM | > 20 µM | > 20 µM | > 100 µM | > 30 µM | > 20 µM | > 20 µM | > 20 µM | > 20 µM | > 20 µM | > 20 µM | > 250 µM | > 20 µM | ≥ 100 µM |
| COC(=O)[C@H](C)NP(=O)(Oc1ccccc1)O[C@H]1O[C@H](CO)[C@@H](O)C1(F)F (mixture of isomers) | > 30 µM | > 20 µM | > 20 µM | > 250 µM | > 20 µM | > 20 µM | > 100 µM | > 30 µM | > 20 µM | > 20 µM | > 20 µM | > 20 µM | > 20 µM | > 20 µM | > 250 µM | > 20 µM | ≥ 100 µM |
| C[C@H](NP(=O)(Oc1cccc2ccccc12)O[C@@H]1O[C@H](CO)[C@@H](O)C1(F)F)C(=O)OCC(C)(C)C (mixture of isomers) | > 30 µM | > 20 µM | > 20 µM | > 50 µM | > 20 µM | > 20 µM | > 100 µM | > 30 µM | > 20 µM | > 20 µM | > 20 µM | > 20 µM | > 20 µM | > 20 µM | > 50 µM | > 20 µM | ≥ 100 µM |
| C[C@H](NP(=O)(Oc1cccc2ccccc12)O[C@H]1O[C@H](CO)[C@@H](O)C1(F)F)C(=O)OCC(C)(C)C (mixture of isomers) | > 30 µM | > 20 µM | > 20 µM | > 50 µM | > 20 µM | > 20 µM | > 100 µM | > 30 µM | > 20 µM | > 20 µM | > 20 µM | > 20 µM | > 20 µM | > 20 µM | > 50 µM | > 20 µM | ≥ 100 µM |
| C[C@H](NP(=O)(Oc1ccccc1)O[C@@H]1O[C@H](CO)[C@@H](O)C1(F)F)C(=O)OC1CCCCC1 (stereo not given in full) | > 30 µM | > 20 µM | > 20 µM | > 250 µM | > 20 µM | > 20 µM | > 100 µM | > 30 µM | > 20 µM | > 20 µM | > 20 µM | > 20 µM | > 20 µM | > 20 µM | > 250 µM | > 20 µM | ≥ 100 µM |
| COC(=O)[C@@H](NP(=O)(Oc1cccc2ccccc12)O[C@H]1O[C@H](CO)[C@@H](O)C1(F)F)C(C)C (mixture of isomers) | > 30 µM | > 20 µM | > 20 µM | > 50 µM | > 20 µM | > 20 µM | > 100 µM | > 30 µM | > 20 µM | > 20 µM | > 20 µM | > 20 µM | > 20 µM | > 20 µM | > 50 µM | > 20 µM | ≥ 100 µM |
| COC(=O)[C@@H](NP(=O)(Oc1ccccc1)O[C@H]1O[C@H](CO)[C@@H](O)C1(F)F)C(C)C (mixture of isomers) | > 30 µM | > 20 µM | > 20 µM | > 250 µM | > 20 µM | > 20 µM | > 100 µM | > 30 µM | > 20 µM | > 20 µM | > 20 µM | > 20 µM | > 20 µM | > 20 µM | > 250 µM | > 20 µM | ≥ 100 µM |
| COC(=O)[C@H](C)NP(=O)(Oc1ccccc1)O[C@@H]1O[C@H](CO)[C@@H](O)C1(F)F (mixture of isomers) | > 30 µM | > 20 µM | > 20 µM | > 250 µM | > 20 µM | > 20 µM | > 100 µM | > 30 µM | > 20 µM | > 20 µM | > 20 µM | > 20 µM | > 20 µM | > 20 µM | > 250 µM | > 20 µM | ≥ 100 µM |
| C[C@H](NP(=O)(Oc1cccc2ccccc12)O[C@@H]1O[C@H](CO)[C@@H](O)C1(F)F)C(=O)OC1CCCCC1 (mixture of isomers) | > 30 µM | > 20 µM | > 20 µM | > 50 µM | > 20 µM | > 20 µM | > 100 µM | > 30 µM | > 20 µM | > 20 µM | > 20 µM | > 20 µM | > 20 µM | > 20 µM | > 50 µM | > 20 µM | ≥ 100 µM |
| COC(=O)[C@@H](NP(=O)(Oc1ccccc1)O[C@@H]1O[C@H](CO)[C@@H](O)C1(F)F)C(C)C (mixture of isomers) | > 30 µM | > 20 µM | > 20 µM | > 250 µM | > 20 µM | > 20 µM | > 100 µM | > 30 µM | > 20 µM | > 20 µM | > 20 µM | > 20 µM | > 20 µM | > 20 µM | > 250 µM | > 20 µM | ≥ 100 µM |
| C[C@H](NP(=O)(Oc1ccccc1)O[C@@H]1O[C@H](CO)[C@@H](O)C1(F)F)C(=O)OCC(C)(C)C (mixture of isomers) | > 30 µM | > 20 µM | > 20 µM | > 250 µM | > 20 µM | > 20 µM | > 100 µM | > 30 µM | > 20 µM | > 20 µM | > 20 µM | > 20 µM | > 20 µM | > 20 µM | > 250 µM | > 20 µM | ≥ 100 µM |
| COC(=O)[C@@H](NP(=O)(Oc1cccc2ccccc12)O[C@@H]1O[C@H](CO)[C@@H](O)C1(F)F)C(C)C (mixture of isomers) | > 30 µM | > 20 µM | > 20 µM | > 50 µM | > 20 µM | > 20 µM | > 100 µM | > 30 µM | > 20 µM | > 20 µM | > 20 µM | > 20 µM | > 20 µM | > 20 µM | > 50 µM | > 20 µM | ≥ 100 µM |
| COC(=O)[C@H](C)NP(=O)(Oc1cccc2ccccc12)O[C@H]1O[C@H](CO)[C@@H](O)C1(F)F (mixture of isomers) | > 30 µM | > 20 µM | > 20 µM | > 50 µM | > 20 µM | > 20 µM | > 100 µM | > 30 µM | > 20 µM | > 20 µM | > 20 µM | > 20 µM | > 20 µM | > 20 µM | > 50 µM | > 20 µM | ≥ 100 µM |
| COC(=O)[C@H](C)NP(=O)(Oc1cccc2ccccc12)O[C@@H]1O[C@H](CO)[C@@H](O)C1(F)F (mixture of isomers) | > 30 µM | > 20 µM | > 20 µM | > 50 µM | > 20 µM | > 20 µM | > 100 µM | > 30 µM | > 20 µM | > 20 µM | > 20 µM | > 20 µM | > 20 µM | > 20 µM | > 50 µM | > 20 µM | ≥ 100 µM |
| C[C@H](NP(=O)(Oc1cccc2ccccc12)O[C@H]1O[C@H](CO)[C@@H](O)C1(F)F)C(=O)OC1CCCCC1 (stereo not given in full) | > 30 µM | > 20 µM | > 20 µM | > 50 µM | > 20 µM | > 20 µM | > 100 µM | > 30 µM | > 20 µM | > 20 µM | > 20 µM | > 20 µM | > 20 µM | > 20 µM | > 50 µM | > 20 µM | ≥ 100 µM |

Source: ChEMBL document CHEMBL2385007, “Synthesis and biological evaluation of prodrugs of 2-fluoro-2-deoxyribose-1-phosphate and 2,2-difluoro-2-deoxyribose-1-phosphate” (Bioorg Med Chem Lett, 2013)
